Source: patent US20100286415A1, “SLEEP-IMPROVING AGENT” (OSAKA BIOSCIENCE INSTITUTE, priority 2007, published 2010)

How the values were obtained:
Sprague-Dawley rats = test: EEG/EMG sleep recording in rats after oral administration (Test Example 1); assay type: in vivo, rat; settings: 100 mg/kg oral, administered at start of dark period, compared to vehicle (water), FIG. 1
Procedure: Sprague-Dawley rats (male, 8 weeks old, weighing 250-280 g) were purchased from Japan SLC, Inc.
The rats were individually housed in acrylic cages placed in a sound insulation chamber. They were given solid rat food (food name: Labo MR Stock) in a 12-hour light and dark cycle (light period starting at 7 a.m.), with free access to food and drinking water.
(§1) An operation to implant electrodes for measuring EEG/EMG was performed on the rats (Huang Z. L. et al., J. Neurosci. 2003, 23(14), 5975-83., Okada T. et al., Biochem. Biophys. Res. Commun. 2003, 312(1), 29-34). The rats were placed in a chamber for recovery for 10 days, and recovered. Then, the rats were moved to a chamber for recording, and measurement cables were connected to the electrodes. The rats were adapted to the environment for 4 days.
Oxypinnatanine was dissolved in water, and a dosage of 100 mg/kg was orally administered using a probe. Administration was carried out at 19:00 (starting time of a dark period). […]
(§2) The EEG and EMG were amplified (EEG: 0.5-30 Hz, EMG: 20-200 Hz), and then digitalized at a sampling speed of 128 Hz for recording. […] EEG data over 12 hours after administration were analyzed. Then, waking time, non-REM sleep time, and REM sleep time per hour were calculated. Further, the EEG power spectrum was analyzed, and the amplitudes of theta waves and delta waves were thereby analyzed.

Slc:ICR mice = test: Locomotor assay (amount of locomotion) in mice, infrared monitor (Test Example 2); assay type: in vivo, mouse; settings: 100 mg/kg oral, administered at start of dark period, compared to vehicle (water), FIG. 2
Procedure: Slc:ICR mice (male, 10 weeks old, weighing 38-40 g) were purchased from Japan SLC, Inc.
The mice were housed in groups (8 mice per group) in acrylic cages placed in a chamber for monitoring the amount of animal behavior, and were habituated for 7 days. They were given solid rat food (food name: Labo MR Stock) in a 12-hour light and dark cycle (light period starting at 7 a.m.), with free access to food and drinking water.
(§3) Oxypinnatanine was dissolved in water, and a dosage weight of 100 mg/kg was orally administered using a probe. Administration was carried out at 19:00 (starting time of a dark period). On day 1, water was solely administered as a control containing only the solvent. On day 2, oxypinnatanine was administered (n=8).
An infrared monitor was used to detect infrared light emitted from the animals to count the amount of locomotion. The infrared monitor recorded continuously for 12 hours. Recording was conducted using a Biotex 16CH Act Monitor BAI2216 (Biotex). For analysis, the time-dependent change in the amount of locomotion and the total amount of locomotion in each hour were calculated.

C57BL/6 mice = test: EEG/EMG sleep recording in mice after oral administration (Test Example 3); assay type: in vivo, mouse; settings: 10 mg/kg oral, administered at start of dark period, compared to vehicle (water), FIG. 3
Procedure: C57BL/6 mice (male, 10 weeks old, weighing 25-28 g) were purchased from Oriental BioService Inc.
The mice were individually housed in acrylic cages placed in a sound insulation chamber. They were given solid mouse food (food name: Labo MR Stock) in a 12-hour light and dark cycle (light period starting at 8 a.m.), with free access to food and drinking water.
as §1, with “mice.” for “rats (Huang Z. L. et al., J. Neurosci. 2003, 23(14), 5975-83., Okada T. et al., Biochem. Biophys. Res. Commun. 2003, 312(1), 29-34).”, “mice” for “rats”
as §3, with “dosage” for “dosage weight”, “10” for “100”, “20:00” for “19:00”, “(n=4).” for “(n=8).”
as §2, with “at the” for “at a”

Compound: NC(CC(O)C(=O)NC1OCC=C1CO)C(=O)O (stereo not shown) [Oxypinnatanine, oxypinnatanine]
- Total non-REM sleep time during 6 hours after administration (Sprague-Dawley rats): effect of increasing non-REM sleep time
- Total amount of locomotion during 6 hours after administration (Slc:ICR mice): statistically significant decrease in the amount of locomotion
- Total non-REM sleep time during 4 hours after administration (C57BL/6 mice): effect of increasing non-REM sleep time with statistical significance

Compound: NC(CC(O)C(=O)NC1OCC=C1CO)C(=O)O (stereo not shown) (hydrate or solvate) [Oxypinnatanine, oxypinnatanine]
- melting point: 152 to 153 °C (dec.)
